In general, pIC50 refers to −log10 of the IC50, conventionally taken in molar units. Lower therefore signals a high IC50.

pIC50: −log10 of the molar value.

The results in this text go back to EP4095134A1, “POLYCYCLIC COMPOUNDS FOR THE TREATMENT OF NEUROLOGICAL INDICATIONS” (UCL Business Ltd, priority 2021, dated 2022).

The target of the test is T1, P2Y1 receptor (Homo sapiens, UniProt P47900).
T1 construct: expressed in transfected cells
In words: P2Y1 IP1 accumulation HTRF assay, antagonism of agonist MRS2365 in stably transfected cells. It counts as cell-based. The settings on record: 5nM MRS2365, values rounded to nearest whole number. An outline of the steps:
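HTRF IP1 accumulation in stably P2Y1-overexpressing cells, plated the day before. Compounds pre-incubated 1 hour (10-point semi-log curve from 10µM, 0.1% DMSO), then 5nM MRS2365 added for 60 minutes, both at 37°C / 5% CO2. IP1 interpolated from standard curve; IC50 from N ≥ 4 runs.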

T1 sequence (P47900 whole entry): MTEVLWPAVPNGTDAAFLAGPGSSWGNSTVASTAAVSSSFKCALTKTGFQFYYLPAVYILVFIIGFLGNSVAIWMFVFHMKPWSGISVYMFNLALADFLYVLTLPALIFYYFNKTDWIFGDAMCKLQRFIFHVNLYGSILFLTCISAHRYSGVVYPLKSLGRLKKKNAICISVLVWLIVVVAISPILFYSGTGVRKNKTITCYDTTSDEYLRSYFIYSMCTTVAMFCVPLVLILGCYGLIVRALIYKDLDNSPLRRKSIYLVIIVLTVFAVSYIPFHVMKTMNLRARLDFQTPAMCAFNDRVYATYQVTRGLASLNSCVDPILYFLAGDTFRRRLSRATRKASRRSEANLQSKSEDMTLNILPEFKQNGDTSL

As to `O=C(Nc1ccc(C(F)(F)F)cn1)Nc1cccnc1Oc1ccccc1C1(C(F)(F)F)CCO1` (racemic) [S38, 1-(2-(2-(2-(trifluoromethyl)oxetan-2-yl)phenoxy)pyridin-3-yl)-3-(5-(trifluoromethyl)pyridin-2-yl)urea], the pIC50 (racemic, N >= 4) is 6.61.

For `O=C(Nc1ccc(OC(F)(F)F)cc1F)Nc1cccnc1Oc1ccc(F)cc1C1(C(F)(F)F)CCO1` (racemic) [S21, 1-(2-(4-fluoro-2-(2-(trifluoromethyl)oxetan-2-yl)phenoxy)pyridin-3-yl)-3-(2-fluoro-4-(trifluoromethoxy)phenyl)urea], the pIC50 (racemic, N >= 4) is 6.85. On the same count and under the same terms, the result for `Cn1c(C(F)(F)F)nc2ccc(NC(=O)Nc3cccnc3Oc3ccccc3C3(C(F)(F)F)CCO3)cc21` (racemic) [S78, 1-(1-methyl-2-(trifluoromethyl)-1H-benzo[d]imidazol-6-yl)-3-(2-(2-(2-(trifluoromethyl)oxetan-2-yl)phenoxy)pyridin-3-yl)urea] reads 5.50; that for `O=C(Nc1ccc(OC(F)(F)F)cc1)Nc1cccnc1Oc1c(F)cccc1C1(C(F)(F)F)CCO1` (racemic) [S37], 6.66. On the same count and under the same terms, to `Cc1ccc(NC(=O)Nc2ccc(OC(F)(F)F)cc2)c(Oc2ccccc2C2(C(F)(F)F)CCN2C)n1` (racemic) [S6] belongs 7.30; to `FC(F)(F)c1nnc(Nc2cccnc2Oc2ccccc2C2(C(F)(F)F)CCO2)s1` (racemic) [S73], 5.77; to `Cc1ccc(NC(=O)NC2CC3(C2)CC(F)(F)C3)c(Oc2ccc(F)cc2C2(C(F)(F)F)CCO2)n1` (racemic) [S86, 1-(6,6-difluorospiro[3.3]heptan-2-yl)-3-(2-(4-fluoro-2-(2-(trifluoromethyl)oxetan-2-yl)phenoxy)-6-methylpyridin-3-yl)urea], 5.22. Still for that read-out and setting: the result for `O=C(Nc1ccc(OC(F)(F)F)cc1)Nc1cccnc1Oc1ccccc1C1(C(F)(F)F)CCN1Cc1ccccc1` (racemic) [S8] reads 7.19; that for `CCN1CCC1(c1ccccc1Oc1ncccc1NC(=O)Nc1ccc(OC(F)(F)F)cc1)C(F)(F)F` (racemic) [S5], 7.37. With `Cc1ccc(NC(=O)Nc2ccc(Cl)c(F)c2)c(Oc2ccccc2C2(C(F)(F)F)CCO2)n1` (racemic) [S17, 1-(4-chloro-3-fluorophenyl)-3-(6-methyl-2-(2-(2-(trifluoromethyl)oxetan-2-yl)phenoxy)pyridin-3-yl)urea], the pIC50 (racemic, N >= 4) was 6.94. The compound `CC(C)(C)CN1CCC1(c1ccccc1Oc1ncccc1NC(=O)Nc1ccc(OC(F)(F)F)cc1)C(F)(F)F` (racemic) [S117] gave a pIC50 (racemic, N >= 4) of 7.41. The compound `COc1ncc(NC(=O)Nc2cccnc2Oc2ccc(F)cc2C2(C(F)(F)F)CCO2)cc1F` (racemic) [S68, 1-(2-(4-fluoro-2-(2-(trifluoromethyl)oxetan-2-yl)phenoxy)pyridin-3-yl)-3-(5-fluoro-6-methoxypyridin-3-yl)urea] had a pIC50 (racemic, N >= 4) of 5.87.

For the compound `Cc1ccc(NC(=O)Nc2ccc(C(C)C)cc2F)c(Oc2ccccc2[C@]2(C(F)(F)F)CCO2)n1` [S123], where the note is “single enantiomer”, the pIC50 is 7.48. Turning to `Cc1ncc(NC(=O)Nc2ccc(OC3CC(F)(F)C3)cc2)c(Oc2ccccc2C2(C(F)(F)F)CCO2)n1` (racemic) [S81, 1-(4-(3,3-difluorocyclobutoxy)phenyl)-3-(2-methyl-4-(2-(2-(trifluoromethyl)oxetan-2-yl)phenoxy)pyrimidin-5-yl)urea], the pIC50 (racemic, N >= 4) is 5.45. On the same count and under the same terms, to `Cc1ccc(NC(=O)Nc2ccc(OC(F)(F)F)cc2F)c(Oc2ccccc2C2(C(F)(F)F)CCN2C)n1` (racemic) [S3] belongs 7.40. `O=C(Nc1cccnc1Oc1ccccc1[C@@]1(C(F)(F)F)CCO1)Nc1ccc(Cl)c(F)c1F` [S108] had a pIC50 (single enantiomer) of 6.90. As for `Cc1ccc(NC(=O)Nc2ccc(OC(F)(F)F)cc2)c(Oc2ccccc2C2(C(F)(F)F)CCO2)n1` (racemic) [S7, 1-(6-methyl-2-(2-(2-(trifluoromethyl)oxetan-2-yl)phenoxy)pyridin-3-yl)-3-(4-(trifluoromethoxy)phenyl)urea], the pIC50 (racemic, N >= 4) is 7.26.

Consider `Cc1ccc(NC(=O)Nc2ccc(OC(F)(F)F)cc2)c(Oc2ccc(F)cc2C2(C(F)(F)F)CCO2)n1` (racemic) [S19, 1-(2-(4-fluoro-2-(2-(trifluoromethyl)oxetan-2-yl)phenoxy)-6-methylpyridin-3-yl)-3-(4-(trifluoromethoxy)phenyl)urea], for which the pIC50 (racemic, N >= 4) was 6.92. Compared with the last compound, the pIC50 is 0.34 log units lower. Where the note is “racemic, N >= 4”, `O=C(Nc1ccc(Cl)cn1)Nc1cccnc1Oc1ccccc1C1(C(F)(F)F)CCO1` (racemic) [S46, 1-(5-chloropyridin-2-yl)-3-(2-(2-(2-(trifluoromethyl)oxetan-2-yl)phenoxy)pyridin-3-yl)urea] showed a pIC50 of 6.42.

`O=C(Nc1ccc(OC(F)(F)F)cc1)Nc1cccnc1Oc1ccccc1[C@@]1(C(F)(F)F)CCO1` [S110] gave a pIC50 (single enantiomer) of 7.17.

`O=C(Nc1ccc(OC(F)(F)F)cc1)Nc1cccnc1Oc1cc(F)ccc1C1(C(F)(F)F)CCO1` (racemic) [S31]: the pIC50 (racemic, N >= 4) was 6.77. Same read-out and setting: the result for `O=C(Nc1ccc(OC(F)(F)F)cc1)Nc1cccnc1Oc1ccccc1C1(C(F)(F)F)CCN1CC1CC1` (racemic) [S116] reads 7.35; that for `Cc1cccc(Oc2ncccc2NC(=O)Nc2ccc(OC(F)(F)F)cc2)c1C1COC1` (racemic) [S88], 5.93. On the same count and under the same terms, to `O=C(Nc1ccc(F)cc1F)Nc1cccnc1Oc1ccccc1C1(C(F)(F)F)CCO1` (racemic) [S65, 1-(2,4-difluorophenyl)-3-(2-(2-(2-(trifluoromethyl)oxetan-2-yl)phenoxy)pyridin-3-yl)urea] belongs 6.01; to `Cc1ccc(NC(=O)Nc2ccc(C(C)C)cc2)c(Oc2ccccc2C2(C(F)(F)F)CCO2)n1` (racemic) [S1], 7.70. Same read-out and setting: to `Cc1c(Oc2ncccc2NC(=O)Nc2ccc(OC(F)(F)F)cc2)cccc1N1CCC1` (racemic) [S94] belongs 6.05; to `O=C(Nc1ccc(OC(F)(F)F)c(F)c1)Nc1cccnc1Oc1ccccc1C1(C(F)(F)F)CCO1` (racemic) [S23, 1-(3-fluoro-4-(trifluoromethoxy)phenyl)-3-(2-(2-(2-(trifluoromethyl)oxetan-2-yl)phenoxy)pyridin-3-yl)urea], 6.84. In turn, `O=C(Nc1ccc(OC(F)(F)F)cn1)Nc1cccnc1Oc1ccccc1C1(C(F)(F)F)CCO1` (racemic) [S50, 1-(5-(trifluoromethoxy)pyridin-2-yl)-3-(2-(2-(2-(trifluoromethyl)oxetan-2-yl)phenoxy)pyridin-3-yl)urea] gave a pIC50 (racemic, N >= 4) of 6.33. Where the note is “single enantiomer”, `O=C(Nc1ccc(OC(F)(F)F)cc1F)Nc1cccnc1Oc1ccccc1[C@]1(C(F)(F)F)CCO1` [S107] had a negative logarithm of the IC50 (pIC50) of 6.95. Regarding `Cc1ccc(NC(=O)Nc2ccc(F)cc2)c(Oc2ccc(F)cc2C2(C(F)(F)F)CCO2)n1` (racemic) [S48, 1-(2-(4-fluoro-2-(2-(trifluoromethyl)oxetan-2-yl)phenoxy)-6-methylpyridin-3-yl)-3-(4-fluorophenyl)urea], the pIC50 (racemic, N >= 4) was 6.39.

`O=C(Nc1ccc(Cl)cc1)Nc1ccc(Cl)nc1Oc1ccccc1C1(C(F)(F)F)CCO1` (racemic) [S24, 1-(6-chloro-2-(2-(2-(trifluoromethyl)oxetan-2-yl)phenoxy)pyridin-3-yl)-3-(4-chlorophenyl)urea] gave a negative-log IC50 (pIC50) (racemic, N >= 4) of 6.84.

For the compound `CN1CC[C@]1(c1ccccc1Oc1ncccc1NC(=O)Nc1ccc(OC(F)(F)F)cc1F)C(F)(F)F` (single isomer, unassigned) [S102], the pIC50 (single enantiomer) is 7.28.
